Source: US9872493B2, “Method for promoting plant growth” (SUMITOMO CHEMICAL COMPANY, LIMITED, priority 2012, dated 2018)
Read-outs that look alike come from different tables or passages of the source.

Columns and labels:
[1] = tested on: Rice (Variety: Nipponbare); assay: Test for evaluating promotion of root growth by hydroponics of rice (Test Examples 1-3); assay type: in vivo
Procedure: Rice (Variety: Nipponbare)
(§1) A DMSO solution, which contained one of the compounds 14, 18, 21, 23, 26, 28, 29, 30, 35, 36, 37, 39 and 40 of the present invention at a concentration of 100,000 ppm, was added to Hoagland hydroponic solution (Hoagland and Arnon, California Agricultural Experiment Station 1950 Circular 347 pp. 34) of ¼-fold concentration at a volume ratio of 1/10,000. In this manner, hydroponic solutions containing one of the compounds 14, 18, 21, 23, 26, 28, 29, 30, 35, 36, 37, 39 and 40 of the present invention at 10 ppm were prepared respectively. As an untreated control plot, a hydroponic solution obtained by adding DMSO to Hoagland hydroponic solution of ¼-fold concentration at a volume ratio of 1/10,000 was used.
(§2) Rice seeds were soaked in a 1% aqueous sodium hypochlorite solution for 10 minutes, then soaked in a 70% ethanol solution for surface sterilization, and then washed with distilled water. The sterilized seeds were soaked in a hydroponic solution containing the test compound described above at 10 ppm and incubated in a dark place for 3 days at 28° C. to perform treatment for hastening germination.
(§3) Thereafter, 30 ml of hydroponic solution containing the test compound at 10 ppm was dispensed in a plastic tube (diameter of 20 mm×height of 113 mm) of which the side was covered with cardboard to block light. A float prepared using a styrene board and vinyl mesh was floated, and the rice seeds that had undergone the treatment for hastening germination were placed on the float on the surface of the hydroponic solution. The seeds were cultivated for 3 days at 26° C., an illuminance of 4,000 lux of the top surface of the tube, a humidity of 50%, and a day length of 16 hours.
The nursery plants of rice obtained after cultivating were measured in terms of the length of seminal root by using WinRHIZO system (manufactured by Regent Instruments Inc). For each test plot, an average of the measured values of the seminal root of 4 or 5 individuals were determined.
as §1, with “compounds 7, 8, 9, 10, 12, 17, 20,” for “compounds 14, 18,”, “21, 25, 27,” for “21, 23, 26,”, “30, 34,” for “30,”, “37, 38,” for “37,”, “of 10,000” for “of 100,000”, “at 1” for “at 10”
as §2, with “at 1” for “at 10”
as §3, with “1” for “10”
The nursery plants of rice obtained after cultivation were measured in terms of the length of seminal root by using WinRHIZO system (manufactured by Regent Instruments Inc). […]

Nicotiana benthamiana = assay: Test for evaluating growth promotion under low-temperature stress by hydroponics of Nicotiana benthamiana (Test Examples 4-6); assay type: in vivo; details: read-out: value of a relative leaf area (equation (1)); for relative green leaf area after low-temperature stress at 10 ppm: compound at 10 ppm; for relative green leaf area after low-temperature stress at 0.1 ppm: compound at 0.1 ppm
Procedure: A DMSO solution, which contained one of the compounds 5, 14, 22, 23, 24, 25, 26, 28, 30, 31, 32, 33, 34, 35, 38, 39 and 40 of the present invention at a concentration of 10,000 ppm, was prepared. The DMSO solution of the compound of the present invention was added at a volume ratio of 1/1,000 to the Murashige•Scoog medium of a ½-fold concentration (a medium containing 2.3 g of mixed salts (manufactured by Wako Pure Chemical Industries, Ltd.), 200 mg of Myo-inositol (manufactured by Sigma-Aldrich Co. LLC.), 2 mg of nicotinic acid (manufactured by Wako Pure Chemical Industries, Ltd.), 2 mg of pyridoxine hydrochloride (manufactured by Wako Pure Chemical Industries, Ltd.), 20 mg of thiamine hydrochloride (manufactured by Wako Pure Chemical Industries, Ltd.), 20 g of sucrose (manufactured by Wako Pure Chemical Industries, Ltd.), and 1 g of MES (manufactured by DOJINDO LABORATORIES) per 1 L of water and having pH adjusted to 5.8), thereby preparing a medium containing the compound of the present invention at a concentration of 10 ppm.
Seeds of Nicotiana benthamiana were seeded in the 5 μL of the medium and cultured overnight at 22° C. Thereafter, 45 μL of the medium containing the compound of the present invention at a concentration of 10 ppm was added thereto, and the seeds are cultivated for 7 days at 22° C., an illuminance of 4,000 lux, and a day length of 16 hours, thereby the nursery plants raised from the Nicotiana benthamiana were treated with the compound.
Moreover, instead of the above medium a test plot, which was obtained by performing the same treatment by using a medium prepared by adding DMSO to the Murashige•Scoog medium of ½-fold concentration at a volume ratio of 1/1,000, was used as a control plot not treated with the compound.
The nursery plants of the Nicotiana benthamiana treated with the compound were subjected to low-temperature treatment by being cultivated for 7 days at 1.5±1.0° C., an illuminance of 2,000 lux, and a day length of 16 hours.
The nursery plants of the Nicotiana benthamiana having undergone the low-temperature stress treatment were cultivated for 3 days at 22° C., an illuminance of 4,000 lux, and a day length of 16 hours. Thereafter, the area of green leaf was quantified by Scanalyzer HTS (manufactured by LemnaTec GmbH). Moreover, the value of the control plot not treated with the compound that had not yet been subjected to the low-temperature stress treatment was measured in the same manner. A value of a relative leaf area was calculated based on the following equation (1), and if the value of a relative leaf area was 5 or greater, the compound was evaluated to have a mitigating effect. As a result of the evaluation, it was confirmed that when the plant was treated with one of the compounds 5, 14, 22, 23, 24, 25, 26, 28, 30, 31, 32, 33, 34, 35, 38, 39 and 40 of the present invention at 10 ppm, the value of a relative leaf area was 5 or greater, compared to the area of green leaf of the control plot not treated with compound. Accordingly, it was confirmed that the treatment using the compound of the present invention brings about a growth promotion effect. Relative leaf area=100*(a green area of a plot treated with the compound of the present invention−a green area of a control plot not treated with the compound of the present invention)/(a green area of a control plot not treated with the compound of the present invention that has not yet been subjected to low-temperature stress treatment−a green area of a control plot not treated with the compound of the present invention) Equation (1): […]
A DMSO solution, which contained one of the compounds 6, 7, 8, 11, 12, 15, 19, 23, 24, 25, 28, 30, 31, 33, 34, 36, 37, 38 and 39 of the present invention at a concentration of 1,000 ppm, was prepared. […]

[2] = compound at 1 ppm, 7 days at 1.5±1.0° C. low-temperature stress, then 3 days at 22° C., green leaf area vs untreated control
[3] = 7 days at 1.5±1.0° C. low-temperature stress, then 3 days at 22° C., green leaf area vs untreated control

In the case of `O=C(O)c1cccc2ccsc12` [Compound 6, benzo[b]thiophene-7-carboxylic acid], the “length of seminal root compared with the untreated control plot (in words)” value ([1]; 0.1 ppm) is reported as “obviously longer” and the relative green leaf area after low-temperature stress at 1 ppm (Nicotiana benthamiana; [2]) is reported as no less than 5%.

With `NC(=O)c1c(C(F)(F)F)sc2ccccc12` [Compound 23] the “length of seminal root compared with the untreated control plot (in words)” value ([1]; 10 ppm) was “obviously longer”, the relative green leaf area after low-temperature stress at 1 ppm (Nicotiana benthamiana; [2]) was no less than 5% and the relative green leaf area after low-temperature stress at 10 ppm (Nicotiana benthamiana; [3]) was no less than 5%.

With `COC(=O)c1csc2ccc(C(F)(F)F)cc12` [Compound 14, methyl 5-trifluoromethylbenzo[b]thiophene-3-carboxylate] the “length of seminal root compared with the untreated control plot (in words)” value ([1]; 10 ppm) was “obviously longer” and the relative green leaf area after low-temperature stress at 10 ppm (Nicotiana benthamiana; [3]) was no less than 5%.

With `COC(=O)c1csc2c(C(F)(F)F)cccc12` [Compound 35] the “length of seminal root compared with the untreated control plot (in words)” value ([1]; 0.1 ppm) was “obviously longer”, the “length of seminal root compared with the untreated control plot (in words)” value ([1]; 1 ppm) was “obviously longer” and the “length of seminal root compared with the untreated control plot (in words)” value ([1]; 10 ppm) was “obviously longer”. It also gave a relative green leaf area after low-temperature stress at 0.1 ppm (Nicotiana benthamiana; [3]) of no less than 5% and a relative green leaf area after low-temperature stress at 10 ppm (Nicotiana benthamiana; [3]) of no less than 5%.

With `Cc1sc2ccccc2c1C(=O)O` [Compound 20] the “length of seminal root compared with the untreated control plot (in words)” value ([1]; 0.1 ppm) was “obviously longer”, the “length of seminal root compared with the untreated control plot (in words)” value ([1]; 1 ppm) was “obviously longer” and the relative green leaf area after low-temperature stress at 0.1 ppm (Nicotiana benthamiana; [3]) was no less than 5%.

In the case of `O=C(NCc1ccccc1)c1c(C(F)(F)F)sc2ccccc12` [Compound 26], the “length of seminal root compared with the untreated control plot (in words)” value ([1]; 0.1 ppm) is reported as “obviously longer”, the “length of seminal root compared with the untreated control plot (in words)” value ([1]; 10 ppm) is reported as “obviously longer” and the relative green leaf area after low-temperature stress at 0.1 ppm (Nicotiana benthamiana; [3]) is reported as no less than 5%. The relative green leaf area after low-temperature stress at 10 ppm (Nicotiana benthamiana; [3]) was no less than 5%.

`CNC(=O)c1csc2c(C(F)(F)F)cccc12` [Compound 38] was tested, and the “length of seminal root compared with the untreated control plot (in words)” value ([1]; 0.1 ppm) was “obviously longer”, the “length of seminal root compared with the untreated control plot (in words)” value ([1]; 1 ppm) was “obviously longer” and the relative green leaf area after low-temperature stress at 1 ppm (Nicotiana benthamiana; [2]) was no less than 5%. It also gave a relative green leaf area after low-temperature stress at 10 ppm (Nicotiana benthamiana; [3]) of no less than 5%.

In the case of `COC(=O)c1cccc2cc(C(F)(F)F)sc12` [Compound 10, methyl 2-trifluoromethylbenzo[b]thiophene-7-carboxylate], the “length of seminal root compared with the untreated control plot (in words)” value ([1]; 1 ppm) is reported as “obviously longer” and the relative green leaf area after low-temperature stress at 0.1 ppm (Nicotiana benthamiana; [3]) is reported as no less than 5%.

With `O=C(O)c1csc2c(C(F)(F)F)cccc12` [Compound 34] the “length of seminal root compared with the untreated control plot (in words)” value ([1]; 0.1 ppm) was “obviously longer”, the “length of seminal root compared with the untreated control plot (in words)” value ([1]; 1 ppm) was “obviously longer” and the relative green leaf area after low-temperature stress at 0.1 ppm (Nicotiana benthamiana; [3]) was no less than 5%. For the same compound, the relative green leaf area after low-temperature stress at 1 ppm (Nicotiana benthamiana; [2]) was no less than 5% and the relative green leaf area after low-temperature stress at 10 ppm (Nicotiana benthamiana; [3]) was no less than 5%.

With `O=C(O)c1csc2cc(C(F)(F)F)ccc12` [Compound 27] the “length of seminal root compared with the untreated control plot (in words)” value ([1]; 0.1 ppm) was “obviously longer” and the “length of seminal root compared with the untreated control plot (in words)” value ([1]; 1 ppm) was “obviously longer”.

Compound `CCOC(=O)c1c(C(F)(F)F)sc2ccccc12` [Compound 22] has a relative green leaf area after low-temperature stress at 0.1 ppm (Nicotiana benthamiana; [3]) of no less than 5% and a relative green leaf area after low-temperature stress at 10 ppm (Nicotiana benthamiana; [3]) of no less than 5%.

In the case of `NC(=O)c1cccc2cc(C(F)(F)F)sc12` [Compound 11, 2-trifluoromethylbenzo[b]thiophene-7-carboxamide], the relative green leaf area after low-temperature stress at 1 ppm (Nicotiana benthamiana) is reported as no less than 5%.

In the case of `O=C(Nc1ccccc1)c1csc2cc(C(F)(F)F)ccc12` [Compound 32], the relative green leaf area after low-temperature stress at 0.1 ppm (Nicotiana benthamiana; [3]) is reported as no less than 5% and the relative green leaf area after low-temperature stress at 10 ppm (Nicotiana benthamiana; [3]) is reported as no less than 5%.

In the case of `COC(=O)c1cccc2sc(C(F)(F)F)cc12` [Compound 2, methyl 2-trifluoromethylbenzo[b]thiophene-4-carboxylate], the relative green leaf area after low-temperature stress at 0.1 ppm (Nicotiana benthamiana; [3]) is reported as no less than 5%.

For `O=C(O)c1cccc2sc(C(F)(F)F)cc12` [Compound 1, 2-trifluoromethylbenzo[b]thiophene-4-carboxylic acid], the “length of seminal root compared with the untreated control plot (in words)” value ([1]; 0.1 ppm) was “obviously longer”.

With `COC(=O)c1c(C(F)(F)F)sc2c(C(=O)OC)cccc12` [Compound 18, dimethyl 2-trifluoromethylbenzo[b]thiophene-3,7-dicarboxylate] the “length of seminal root compared with the untreated control plot (in words)” value ([1]; 10 ppm) was “obviously longer”.

With `NC(=O)c1c(C(F)(F)F)sc2ccccc12` [Compound 17, 2-trifluoromethylbenzo[b]thiophene-3-carboxamide] the “length of seminal root compared with the untreated control plot (in words)” value ([1]; 1 ppm) was “obviously longer”.

Work on `COC(=O)c1ccc2sccc2c1` [Compound 5, methyl benzo[b]thiophene-5-carboxylate] yielded a relative green leaf area after low-temperature stress at 10 ppm (Nicotiana benthamiana; [3]) of no less than 5%.

`O=C(NCc1ccccc1)c1csc2cc(C(F)(F)F)ccc12` [Compound 33] showed a relative green leaf area after low-temperature stress at 0.1 ppm (Nicotiana benthamiana; [3]) of no less than 5%, a relative green leaf area after low-temperature stress at 1 ppm (Nicotiana benthamiana; [2]) of no less than 5% and a relative green leaf area after low-temperature stress at 10 ppm (Nicotiana benthamiana; [3]) of no less than 5%.

For `CNC(=O)c1c(C(F)(F)F)sc2ccccc12` [Compound 24], the relative green leaf area after low-temperature stress at 1 ppm (Nicotiana benthamiana; [2]) was no less than 5% and the relative green leaf area after low-temperature stress at 10 ppm (Nicotiana benthamiana; [3]) was no less than 5%.
